Source: ChEMBL document CHEMBL1201862, “PubChem BioAssay data set” (2004)
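Test compounds were applied to cells in 96-well plates for 48 hours at 5 doses. Here, GI50 denotes the concentration required for 50% inhibition of growth.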 Active and inactive are the calls of the source. Rule as the data show it: active = GI50 up to about 1.1 µM and inactive = higher.

Legend:
Test in all cases: DTP human tumour cell line panel, 48 h
CAKI-1 = test system: CAKI-1
DU-145 = test system: DU-145
EKVX = test system: EKVX
HCC 2998 = test system: HCC 2998
HOP-92 = test system: HOP-92
HT-29 = test system: HT-29
K562 = test system: K562
NCI/ADR-RES = test system: NCI/ADR-RES
OVCAR-4 = test system: OVCAR-4
OVCAR-8 = test system: OVCAR-8
PC-3 = test system: PC-3
RPMI-8226 = test system: RPMI-8226
RXF 393 = test system: RXF 393
SF-295 = test system: SF-295
SN12C = test system: SN12C
SNB-75 = test system: SNB-75
SR = test system: SR
SW-620 = test system: SW-620
U-251 = test system: U-251
UO-31 = test system: UO-31

| Structure (SMILES) | GI50 (CAKI-1) | GI50 (DU-145) | GI50 (EKVX) | GI50 (HCC 2998) | GI50 (HOP-92) | GI50 (HT-29) | GI50 (K562) | GI50 (NCI/ADR-RES) | GI50 (OVCAR-4) | GI50 (OVCAR-8) | GI50 (PC-3) | GI50 (RPMI-8226) | GI50 (RXF 393) | GI50 (SF-295) | GI50 (SN12C) | GI50 (SNB-75) | GI50 (SR) | GI50 (SW-620) | GI50 (U-251) | GI50 (UO-31) |
| --- | --- | --- | --- | --- | --- | --- | --- | --- | --- | --- | --- | --- | --- | --- | --- | --- | --- | --- | --- | --- |
| Cn1c2ccccc2n2c3ncccc3c(=O)c(C#N)c12 | 5.31 µM (inactive) | 6.5 µM (inactive) | 32.8 µM (inactive) | 21.5 µM (inactive) | 19.5 µM (inactive) | 5.51 µM (inactive) | > 100 µM (inactive) | 16.3 µM (inactive) | 30.7 µM (inactive) | 5.27 µM (inactive) | 19.5 µM (inactive) | > 100 µM (inactive) | 16.9 µM (inactive) | 7.69 µM (inactive) | 8.49 µM (inactive) | 12.2 µM (inactive) | 3.73 µM (inactive) | 7.85 µM (inactive) | 6.38 µM (inactive) | 5.62 µM (inactive) |
| COC1C=COC2(C)Oc3c(C)c(O)c4c(c3C2=O)/C(=N/C2CCC(O)OC2C)C=C(NC(=O)/C(C)=C\C(=O)C2CC2C(O)C(C)C(O)C(C)C(OC(C)=O)C1C)C4=O (stereo not given) | 3.24 µM (inactive) | 2.54 µM (inactive) | 3.13 µM (inactive) | 2.47 µM (inactive) | 2.07 µM (inactive) | 1.15 µM (inactive) | 2.22 µM (inactive) | 14.2 µM (inactive) | 3.09 µM (inactive) | 1.69 µM (inactive) | 2.3 µM (inactive) | 0.962 µM (active) | 1.86 µM (inactive) | 3.72 µM (inactive) | 1.61 µM (inactive) | 3.09 µM (inactive) | 1.7 µM (inactive) | 1.88 µM (inactive) | 2.77 µM (inactive) | 2.52 µM (inactive) |
| CC[C@H](C)[C@H]1NC(=O)[C@@H](NC(=O)[C@@H](CC(C)C)N(C)CC2CCCN2C(=O)C(C)=O)[C@@H](C)OC(=O)[C@H](Cc2ccc(OC)cc2)N(C)C(=O)C2CCCN2C(=O)[C@H](CC(C)C)NC(=O)[C@@H](C)C(=O)[C@H](C(C)C)OC(=O)C[C@@H]1O (stereo not given in full) | 0.0221 µM (active) | < 0.0025 µM (active) | 0.00379 µM (active) | 0.00448 µM (active) | 0.00403 µM (active) | 0.00255 µM (active) | 0.00531 µM (active) | 0.0179 µM (active) | < 0.0025 µM (active) | 0.00372 µM (active) | 0.00406 µM (active) | 0.00313 µM (active) | < 0.0025 µM (active) | 0.00371 µM (active) | 0.00545 µM (active) | 0.00317 µM (active) | 0.00251 µM (active) | 0.00409 µM (active) | < 0.0025 µM (active) | 0.00893 µM (active) |
| C[C@]12CCC(=O)C=C1CC[C@@H]1[C@@H]2[C@@H](O)C[C@@]2(C)[C@H]1CC[C@]2(O)C(=O)CO [HYDROCORTISONE] | > 100 µM (inactive) | > 100 µM (inactive) | > 82.4 µM (inactive) | > 100 µM (inactive) | > 100 µM (inactive) | > 100 µM (inactive) | > 100 µM (inactive) | > 100 µM (inactive) | > 100 µM (inactive) | > 100 µM (inactive) | > 100 µM (inactive) | 0.34 µM (active) | > 100 µM (inactive) | > 100 µM (inactive) | 31.8 µM (inactive) | > 100 µM (inactive) | > 100 µM (inactive) | > 100 µM (inactive) | > 100 µM (inactive) | > 100 µM (inactive) |
